{"source": "patent US8222278B2", "about": "“Treatment of attention-deficit/hyperactivity disorder” (Abbott Laboratories, priority 2008, dated 2012)", "system": "adults with ADHD", "experiment": "Study A: ABT-894 Adult ADHD Dose-Ranging crossover clinical study, efficacy rating scales", "format": "in vivo, human", "procedure": "A clinical study (Study A) was conducted to assess the safety and efficacy of ABT-894 compared to placebo in adults with ADHD and to evaluate the dose-response relationship.\nA total of 243 subjects aged 18 to 60 years old meeting DSM-IV-TR criteria for ADHD were randomized across the 5 dose groups. Male or female patients were included. […] The disposition of the study subjects is further discussed with the study results below.\nSubjects in each dose group received, in random order, both ABT-894 and placebo according to a 2×2 crossover design. Each treatment period was 4 weeks separated by a 2-week washout period.\nEach site was assigned to one of two cohorts (Cohort A or Cohort B) in approximately a 3:2 ratio. Subjects in Cohort A were randomized in equal proportions to one of 6 treatment sequences in 3 dose groups, and subjects in Cohort B were randomized in equal proportions to one of 4 treatment sequences in 2 dose groups, as shown in Table 1. Within each dose group subjects received either ABT-894 or atomoxetine in Period 1 and placebo in Period 2, or placebo in Period 1 and ABT-894 or atomoxetine in Period 2.\nThe study medication was dispensed in the form of a capsule. Each capsule contained ABT-894, atomoxetine, or placebo. The capsules were made to look identical.\nThe primary efficacy endpoint was the Conners' Adult ADHD Rating Scale—Investigator Rated (CAARS:Inv) Total Score (18 items) at the final evaluation of each 4-week treatment period. The CAARS:Inv was assessed at baseline and Days 7. 14. 21, and 28 of each period. Each CAARS:Inv item was rated on a 4-point scale of frequency of occurrence (0=not at all, never; 3=very much. very frequently) during the previous 7 days.\nSecondary efficacy endpoints included the CAARS:Inv Inattentive and Hyperactive/Impulsive Subscale Scores, Clinical Global Impression-ADHD-Severity Scale (CGI-ADHD-S). Adult ADHD Investigator Symptom Report Scale (AISRS), including total and subscales, and the Self-rated Connors Adult ADHD Rating Scale (CAARS-Self). Health outcomes including the Adult ADHD Quality of Life Scale (AAQoL) and Work Productivity and Activity Impairment Questionnaire (WPAI) were used to evaluate the validity of these scales in this study population for use in subsequent clinical trials.\nThe primary analysis was performed on each dose group separately according to the Statistical Analysis Plan (SAP). The primary statistical model that was used for analyzing the primary efficacy variable, the CAARS:INV total score, and all other secondary efficacy variables was determined by a SAP specified testing procedure. The comparability between two sequences for a given dose group with respect to the difference between period-specific baselines was tested using a one-way ANCOVA with the term of treatment and the Period I baseline as the covariate at the significance level of 0.10. The equal residual effect from Period I to Period II between two different sequences for a given dose group was tested using a standard model for cross-over data analysis, Grizzle model, on the term of “sequence” at the significance level of 0.10.\nAfter the study blind was broken, across 5 dose groups. all the tests accepted the null hypothesis that there was no statistically significant treatment effect for the differences between the period-specific baselines. The tests also accepted the null hypothesis that there was no period residual effect in any of the dose groups. Accordingly, the Grizzle model was used as the primary analysis model to analyze treatment group difference for CAARS:INV total score at Day 28 for each dose group. The Grizzle Model was carried out by SAS PROC Mixed with the terms of study center. sequence, subjects within sequence, period, treatment, as well as period-specific baselines as covariates.\nThe primary efficacy dataset included all subjects who completed both periods of the study (completers dataset). […]", "key": {"[1]": {"settings": "ABT-894 1 mg QD, day 28, completers N = 40"}, "[2]": {"settings": "ABT-894 2 mg QD, day 28, completers N = 37"}, "[3]": {"settings": "ABT-894 4 mg BID, day 28, completers N = 43"}, "[4]": {"settings": "ABT-894 4 mg QD, day 28, completers N = 36"}}}
{"smiles": "Clc1cc(N2C[C@@H]3CN[C@@H]3C2)cnc1Cl", "note": "[ABT-894, 3-(5,6-Dichloro-pyridin-3-yl)-1S,5S-3,6-diazabicyclo[3.2.0]heptane]", "values": [{"measurement": "AISRS Hyperactivity Score, mean difference from placebo", "setting": "[1]", "result": "1.53 (−0.8, 3.8)"}, {"measurement": "AISRS Inattention Score, mean difference from placebo", "setting": "[1]", "result": "1.72 (−0.6, 4.1)"}, {"measurement": "AISRS Total Score, mean difference from placebo", "setting": "[1]", "result": "3.19 (−1.2, 7.6)"}, {"measurement": "CAARS:Inv ADHD Index, mean difference from placebo", "setting": "[1]", "result": "1.84 (−0.0. 3.7)"}, {"measurement": "CAARS:Inv Hyperactive/Impulsive subscale score, mean difference from placebo", "setting": "[1]", "result": "0.93 (−0.2, 2.0)"}, {"measurement": "CAARS:Inv Inattentive subscale score, mean difference from placebo", "setting": "[1]", "result": "0.94 (−1.5, 3.4)"}, {"measurement": "CAARS:Inv Total Score, mean difference from placebo", "setting": "[1]", "result": "2.11 (−2.4, 6.6)"}, {"measurement": "CAARS:Self ADHD Index, mean difference from placebo", "setting": "[1]", "result": "2.04 (0.2, 3.9)"}, {"measurement": "CAARS:Self Hyperactivity Score, mean difference from placebo", "setting": "[1]", "result": "0.68 (−0.4, 1.8)"}, {"measurement": "CAARS:Self Impulsivity Score, mean difference from placebo", "setting": "[1]", "result": "0.65 (−0.1, 1.4)"}, {"measurement": "CAARS:Self Inattention/Memory Score, mean difference from placebo", "setting": "[1]", "result": "0.60 (−0.5, 1.7)"}, {"measurement": "CAARS:Self Problem with Self-concept Score, mean difference from placebo", "setting": "[1]", "result": "0.51 (−0.2, 1.2)"}, {"measurement": "CAARS:Self Total Score, mean difference from placebo", "setting": "[1]", "result": "3.57 (−0.4, 7.5)"}, {"measurement": "CGI-ADHD-S, mean difference from placebo", "setting": "[1]", "result": "0.04 (−0.3, 0.4)"}, {"measurement": "Measures of sustained attention, inhibitory control, and executive function", "setting": "ABT-894 2 mg QD", "result": "improved measures of sustained attention, inhibitory control, and executive function"}, {"measurement": "AISRS Hyperactivity Score, mean difference from placebo", "setting": "[2]", "result": "−1.11 (−3.0, 0.7)"}, {"measurement": "AISRS Inattention Score, mean difference from placebo", "setting": "[2]", "result": "−1.59 (−3.6, 0.4)"}, {"measurement": "AISRS Total Score, mean difference from placebo", "setting": "[2]", "result": "−2.72 (−6.4, 1.0)"}, {"measurement": "CAARS:Inv ADHD Index, mean difference from placebo", "setting": "[2]", "result": "−1.52 (−3.3, 0.2)"}, {"measurement": "CAARS:Inv Hyperactive/Impulsive subscale score, mean difference from placebo", "setting": "[2]", "result": "−0.55 (−1.4, 0.3)"}, {"measurement": "CAARS:Inv Inattentive subscale score, mean difference from placebo", "setting": "[2]", "result": "−1.92 (−3.8, −0.1)"}, {"measurement": "CAARS:Inv Total Score, mean difference from placebo", "setting": "[2]", "result": "−3.18 (6.7,0.3)"}, {"measurement": "CAARS:Self ADHD Index, mean difference from placebo", "setting": "[2]", "result": "−1.50 (−3.3, 0.3)"}, {"measurement": "CAARS:Self Hyperactivity Score, mean difference from placebo", "setting": "[2]", "result": "−0.57 (−1.4, 0.3)"}, {"measurement": "CAARS:Self Impulsivity Score, mean difference from placebo", "setting": "[2]", "result": "−0.48 (−1.3, 0.3)"}, {"measurement": "CAARS:Self Inattention/Memory Score, mean difference from placebo", "setting": "[2]", "result": "−0.23 (−1.2, 0.8)"}, {"measurement": "CAARS:Self Problem with Self-concept Score, mean difference from placebo", "setting": "[2]", "result": "−0.57 (−1.6, 0.5)"}, {"measurement": "CAARS:Self Total Score, mean difference from placebo", "setting": "[2]", "result": "−2.64 (−6.6, 1.3)"}, {"measurement": "CGI-ADHD-S, mean difference from placebo", "setting": "[2]", "result": "−0.31 (−0.6, 0.0)"}, {"measurement": "Efficacy measures compared with atomoxetine", "setting": "ABT-894 4 mg BID vs atomoxetine", "result": "comparable across efficacy measures"}, {"measurement": "AISRS Hyperactivity Score, mean difference from placebo", "setting": "[3]", "result": "−3.58 (−5.6, −1.6)"}, {"measurement": "AISRS Inattention Score, mean difference from placebo", "setting": "[3]", "result": "−4.26 (−6.6, −1.9)"}, {"measurement": "AISRS Total Score, mean difference from placebo", "setting": "[3]", "result": "−8.07 (−12.2, −3.9)"}, {"measurement": "CAARS:Inv ADHD Index, mean difference from placebo", "setting": "[3]", "result": "−3.37 (−5.3. −1.4)"}, {"measurement": "CAARS:Inv Hyperactive/Impulsive subscale score, mean difference from placebo", "setting": "[3]", "result": "−1.90 (−3.0, −0.8)"}, {"measurement": "CAARS:Inv Inattentive subscale score, mean difference from placebo", "setting": "[3]", "result": "−4.08 (−6.4, −1.7)"}, {"measurement": "CAARS:Self ADHD Index, mean difference from placebo", "setting": "[3]", "result": "−3.31 (−5.2, −1.4)"}, {"measurement": "CAARS:Self Hyperactivity Score, mean difference from placebo", "setting": "[3]", "result": "−1.74 (−2.9, −0.6)"}, {"measurement": "CAARS:Self Impulsivity Score, mean difference from placebo", "setting": "[3]", "result": "−0.70 (−1.4, −0.0)"}, {"measurement": "CAARS:Self Inattention/Memory Score, mean difference from placebo", "setting": "[3]", "result": "−1.40 (−2.5, −0.3)"}, {"measurement": "CAARS:Self Problem with Self-concept Score, mean difference from placebo", "setting": "[3]", "result": "−1.39 (−2.5, −0.3)"}, {"measurement": "CAARS:Self Total Score, mean difference from placebo", "setting": "[3]", "result": "−7.34 (−11.6, −3.1)"}, {"measurement": "CGI-ADHD-S, mean difference from placebo", "setting": "[3]", "result": "−0.58 (−1.0, −0.2)"}, {"measurement": "AISRS Hyperactivity Score, mean difference from placebo", "setting": "[4]", "result": "−0.81 (−2.6, 1.0)"}, {"measurement": "AISRS Inattention Score, mean difference from placebo", "setting": "[4]", "result": "0.81 (−1.2, 2.8)"}, {"measurement": "AISRS Total Score, mean difference from placebo", "setting": "[4]", "result": "−0.13 (−3.6, 3.4)"}, {"measurement": "CAARS:Inv ADHD Index, mean difference from placebo", "setting": "[4]", "result": "−0.12 (−1.8, 1.5)"}, {"measurement": "CAARS:Inv Hyperactive/Impulsive subscale score, mean difference from placebo", "setting": "[4]", "result": "−1.07 (−2.1, −0.0)"}, {"measurement": "CAARS:Inv Inattentive subscale score, mean difference from placebo", "setting": "[4]", "result": "0.60 (−1.5, 2.7)"}, {"measurement": "CAARS:Inv Total Score, mean difference from placebo", "setting": "[4]", "result": "0.23 (−3.2, 3.7)"}, {"measurement": "CAARS:Self ADHD Index, mean difference from placebo", "setting": "[4]", "result": "−0.19 (−1.9, 1.5)"}, {"measurement": "CAARS:Self Hyperactivity Score, mean difference from placebo", "setting": "[4]", "result": "−0.78 (−1.8, 0.2)"}, {"measurement": "CAARS:Self Impulsivity Score, mean difference from placebo", "setting": "[4]", "result": "−0.02 (−0.9, 0.9)"}, {"measurement": "CAARS:Self Inattention/Memory Score, mean difference from placebo", "setting": "[4]", "result": "0.11 (−0.9, 1.2)"}, {"measurement": "CAARS:Self Problem with Self-concept Score, mean difference from placebo", "setting": "[4]", "result": "0.33 (−0.7, 1.4)"}, {"measurement": "CAARS:Self Total Score, mean difference from placebo", "setting": "[4]", "result": "−1.13 (−5.2, 2.9)"}, {"measurement": "CGI-ADHD-S, mean difference from placebo", "setting": "[4]", "result": "−0.06 (−0.3, 0.2)"}, {"measurement": "Efficacy in the treatment of the core symptoms of ADHD", "setting": "human patients, compared to placebo", "result": "statistically significant efficacy compared to placebo"}]}
